According to patent publication US20240245711A1, “A 19-NOR C3,3-DISUBSTITUTED C21-N-PYRAZOLYL STEROID FOR THE TREATMENT OF MAJOR DEPRESSIVE DISORDER” (Sage Therapeutics, Inc., priority 2021, published 2024):
Values joined by “and” are separate entries in the source; they are usually repeats but may differ in a detail not shown here. Equal values may be shown once.

Tested on: adult subjects with Major Depressive Disorder
Assay: Phase 3 open-label 1-year study: HAM-D total score, response and remission
Format: in vivo, human
Conditions: for HAM-D Total Score, Mean Percent Change from Period-Specific Baseline / HAM-D Total Score, Mean Change from Period-Specific Baseline: Low Dose Cohort (FAS); for HAM-D Remission / HAM-D Response / HAM-D total score, Mean % CFB ± SD / HAM-D total score, Mean CFB ± SD: Study Period 1, safety set, 30 mg Cohort (N = 725)
Description: Secondary Objective: To assess the need for re-treatment with Compound (1) following initial treatment in adults with MDD currently experiencing an MDE over a 1-year period, and to assess the response of initial treatment and re-treatment(s) with Compound (1) following an initial 2-week treatment period in adults with MDD currently experiencing an MDE over a 1-year period.
Secondary Endpoints: The need for re-treatment with Compound (1) as assessed by: time to first re-treatment (Kaplan-Meier curves), number of subjects achieving the requirements for re-treatment, number of re-treatment cycles for each subject, the response of initial treatment and/or re-treatment as assessed by: change from baseline in the 17-item Hamilton Rating Scale for Depression (HAM-D) total score at the end of each 14-day treatment (initial and/or re-treatment) period, HAM-D response at the end of each 14-day treatment (initial and/or re-treatment) period, defined as a ≥50% reduction in HAM-D score from baseline, HAM-D remission at the end of each 14-day treatment (initial and/or re-treatment) period, defined as HAM-D total score≤7, Clinical Global Impression-Improvement (CGI-I) response, defined as “much improved” or “very much improved”, at the end of each 14-day treatment (initial and/or re-treatment) period, change from baseline in Clinical Global Impression-Severity (CGI-S) score at the end of each 14-day treatment (initial and/or re-treatment) period.
Study Population: Subjects were 18-75 years old, diagnosed with major depressive disorder (MDD) with a MADRS total score of ≥28 and a HAM-D total score of ≥20 at Screening and Day 1 (prior to dosing).
Treatment Groups: The 30 mg and 50 mg dose groups were separated by time of enrollment. The study is comprised of two cohorts: one with Compound (1) 30 mg as a starting dose (30 mg Cohort: n=725), an initial cohort with Compound (1) 50 mg as a starting dose (50 mg Cohort: n=199). A patient receiving Compound (1) 30 mg could be dose reduced to 20 mg and patients receiving Compound (1) 50 mg could be dose reduced to 40 mg (based on tolerability). In all cohorts, Compound (1) is self-administered by patients as an oral therapy once nightly with food for 14 days.
Eligible subjects were given Compound (1)—to be taken at home in the evening with meal.
The cohorts pertaining to the different doses that the subjects received were defined as following: • 50 mg cohort: This cohort includes subjects who have initiated treatment with 50 mg and received re-treatment with 50 mg only. • 30 mg cohort: This cohort includes subjects who have initiated treatment with 30 mg regardless of the dose they have received in re-treatments. • Low dose cohort: This cohort includes subjects who have initiated treatment with 30 mg and received re-treatment with 30 mg only. • Dose switch cohort: This cohort includes subjects who have received initial treatment with 30 mg and at least one subsequent re-treatment with 50 mg. • Study Period X: starts on the date of the first dose of Compound (1) in cycle X and goes up to one day prior to the first dose of the next cycle. In some embodiments, X is any number from 1 to 5. • Treatment Period X: starts on the date of the first dose of Compound (1) in cycle X and goes up to one day after the last dose in cycle X. In some embodiments, X is any number from 1 to 5. • Treatment Cycle X: starts on the date of the first dose of Compound (1) in cycle X and goes up to 14 days after the last dose in cycle X. The treatment cycles may be denoted as C1-C5. • Observation period X: starts the day after Treatment Cycle X ends and goes up to one day prior to the start of next treatment cycle. In some embodiments, X is any number from 1 to 5.
Analysis Sets: The safety set was defined as all subjects who were administered study drug. The period-specific safety set includes subjects in the safety set who were administered study drug in the corresponding treatment cycle. […]

[1] = subjects dosed in Cycle 4 (43), Cycle 1, Day 28
[2] = subjects dosed in Cycle 4 (43), Cycle 2, Day 15
[3] = subjects dosed in Cycle 4 (43), Cycle 2, Day 28
[4] = subjects dosed in Cycle 4 (43), Cycle 3, Day 15
[5] = subjects dosed in Cycle 4 (43), Cycle 3, Day 28
[6] = subjects dosed in Cycle 4 (43), Cycle 4, Day 15
[7] = subjects dosed in Cycle 4 (43), Cycle 4, Day 28
[8] = subjects dosed in Cycle 5 (20), Cycle 1, Day 15
[9] = subjects dosed in Cycle 5 (20), Cycle 1, Day 28
[10] = subjects dosed in Cycle 5 (20), Cycle 2, Day 15
[11] = subjects dosed in Cycle 5 (20), Cycle 2, Day 28
[12] = subjects dosed in Cycle 5 (20), Cycle 3, Day 15
[13] = subjects dosed in Cycle 5 (20), Cycle 3, Day 28
[14] = subjects dosed in Cycle 5 (20), Cycle 4, Day 15
[15] = subjects dosed in Cycle 5 (20), Cycle 4, Day 28
[16] = subjects dosed in Cycle 5 (20), Cycle 5, Day 28

Compound: C[C@@]1(O)CC[C@H]2[C@H](CC[C@@H]3[C@@H]2CC[C@]2(C)[C@@H](C(=O)Cn4cc(C#N)cn4)CC[C@@H]32)C1 [Compound (1), 1-(2-((3R,5R,8R,9R,10S,13S,14S,17S)-3-hydroxy-3,13-dimethylhexadecahydro-1H-cyclopenta[a]phenanthren-17-yl)-2-oxoethyl)-1H-pyrazole-4-carbonitrile]
- HAM-D Total Score, Mean Percent Change from Period-Specific Baseline (subjects dosed in Cycle 4 (43), Cycle 1, Day 15): −68.2
- HAM-D Total Score, Mean Change from Period-Specific Baseline [1]: −13.0
- HAM-D Total Score, Mean Percent Change from Period-Specific Baseline [1]: −52.0
- HAM-D Total Score, Mean Change from Period-Specific Baseline [2]: −12.1
- HAM-D Total Score, Mean Percent Change from Period-Specific Baseline [2]: −49.6
- HAM-D Total Score, Mean Change from Period-Specific Baseline [3]: −10.4
- HAM-D Total Score, Mean Percent Change from Period-Specific Baseline [3]: −42.4
- HAM-D Total Score, Mean Change from Period-Specific Baseline [4]: −12.7
- HAM-D Total Score, Mean Percent Change from Period-Specific Baseline [4]: −54.1
- HAM-D Total Score, Mean Change from Period-Specific Baseline [5]: −11.1
- HAM-D Total Score, Mean Percent Change from Period-Specific Baseline [5]: −46.9
- HAM-D Total Score, Mean Change from Period-Specific Baseline [6]: −11.7
- HAM-D Total Score, Mean Percent Change from Period-Specific Baseline [6]: −50.0
- HAM-D Total Score, Mean Change from Period-Specific Baseline [7]: −9.9
- HAM-D Total Score, Mean Percent Change from Period-Specific Baseline [7]: −41.9
- HAM-D Total Score, Mean Change from Period-Specific Baseline [8]: −16.5
- HAM-D Total Score, Mean Percent Change from Period-Specific Baseline [8]: −66.9
- HAM-D Total Score, Mean Change from Period-Specific Baseline [9]: −11.3
- HAM-D Total Score, Mean Percent Change from Period-Specific Baseline [9]: −45.7
- HAM-D Total Score, Mean Change from Period-Specific Baseline [10]: −11.1
- HAM-D Total Score, Mean Percent Change from Period-Specific Baseline [10]: −45.1
- HAM-D Total Score, Mean Change from Period-Specific Baseline [11]: −9.2
- HAM-D Total Score, Mean Percent Change from Period-Specific Baseline [11]: −37.8
- HAM-D Total Score, Mean Change from Period-Specific Baseline [12]: −11.9
- HAM-D Total Score, Mean Percent Change from Period-Specific Baseline [12]: −51.5
- HAM-D Total Score, Mean Change from Period-Specific Baseline [13]: −10.7
- HAM-D Total Score, Mean Percent Change from Period-Specific Baseline [13]: −46.1
- HAM-D Total Score, Mean Change from Period-Specific Baseline [14]: −11.6
- HAM-D Total Score, Mean Percent Change from Period-Specific Baseline [14]: −48.9
- HAM-D Total Score, Mean Change from Period-Specific Baseline [15]: −7.7
- HAM-D Total Score, Mean Percent Change from Period-Specific Baseline [15]: −32.6
- HAM-D Total Score, Mean Change from Period-Specific Baseline (subjects dosed in Cycle 5 (20), Cycle 5, Day 15): 17, −11.6/—
- HAM-D Total Score, Mean Change from Period-Specific Baseline [16]: −7.1
- HAM-D Total Score, Mean Percent Change from Period-Specific Baseline [16]: −30.6
- Withdrawn in Treatment Cycle 1: Exit for non-response, n (%) (Low Dose Cohort (n = 645)): 146 (22.6%)
- HAM-D Remission (Day 8): (17.8%)
- HAM-D Response (Day 8): 295/704 (41.9%)
- HAM-D total score, Mean % CFB ± SD (Day 8): −42.9 ± 25.68%
- HAM-D total score, Mean CFB ± SD (Day 8): −10.9 ± 6.75
- HAM-D total score, Mean % CFB ± SD (Day 15): −60.0 ± 25.61%
- HAM-D total score, Mean CFB ± SD (Day 15): −15.2±7.1 and −15.2 ± 7.07
- HAM-D Remission (Day 28): (32.6%)
- HAM-D Response (Day 28): 372/681 (54.6%)
- HAM-D total score, Mean % CFB ± SD (Day 28): −51.9 ± 29.96%
- HAM-D total score, Mean CFB ± SD (Day 28): −13.3 ± 8.07
- HAM-D Remission (Day 70): (30.0%)
- HAM-D Response (Day 70): 193/384 (50.3%)
- HAM-D total score, Mean % CFB ± SD (Day 70): −46.6 ± 34.25%
- HAM-D total score, Mean CFB ± SD (Day 70): −12.1 ± 9.12
- HAM-D Remission (Day 126): (47.3%)
